Laboratory results published in PubChem BioAssay AID330 (DTP/NCI, 2004).
Several values for one entry are separate records, joined by “and”; a condition that tells them apart may be missing. Equal entries are not always repeated. Toxic doses and inconclusive results are not listed. How the source made its calls: active means survival T/C of 150% or more; inactive means T/C below 125% in these data.

Tested on: P388 leukemia ip, CD2F1 mice, survival T/C
Test: NCI In Vivo Anticancer Drug Screen. Data for tumor model P388 Leukemia (intraperitoneal) in CD2F1 (CDF1) mice
Details: endpoint: median survival time, higher = longer survival
Protocol: The antitumor activity of compounds was measured in mice bearing transplantable tumors. Survival or tumor size were measured and the results are expressed as the measurement made in the treated group (T) divided by the measurement made in the vehicle treated control group (C). The tumor model used in this assay is P388 Leukemia (intraperitoneal) in CD2F1 (CDF1) mice

[1] = dose: 100.0 mg/kg/injection, schedule: Q04DX003 (ip), vehicle: saline with Tween-80
[2] = dose: 200.0 mg/kg/injection, schedule: Q04DX003 (ip), vehicle: saline with Tween-80
[3] = dose: 50.0 mg/kg/injection, schedule: Q01DX009 (ip), vehicle: saline
[4] = dose: 100.0 mg/kg/injection, schedule: Q01DX009 (ip), vehicle: saline
[5] = dose: 200.0 mg/kg/injection, schedule: Q01DX009 (ip), vehicle: saline
[6] = dose: 100.0 mg/kg/injection, schedule: Q01DX001 (ip), vehicle: Klucel (hydroxypropylcellulose) (HPC)
[7] = dose: 200.0 mg/kg/injection, schedule: Q01DX001 (ip), vehicle: Klucel (hydroxypropylcellulose) (HPC)
[8] = dose: 400.0 mg/kg/injection, schedule: Q01DX001 (ip), vehicle: Klucel (hydroxypropylcellulose) (HPC)
[9] = dose: 12.5 mg/kg/injection, schedule: Q01DX009 (ip), vehicle: saline with Tween-80
[10] = dose: 25.0 mg/kg/injection, schedule: Q01DX009 (ip), vehicle: saline with Tween-80
[11] = dose: 50.0 mg/kg/injection, schedule: Q01DX009 (ip), vehicle: saline with Tween-80
[12] = dose: 100.0 mg/kg/injection, schedule: Q01DX009 (ip), vehicle: saline with Tween-80
[13] = dose: 200.0 mg/kg/injection, schedule: Q01DX009 (ip), vehicle: saline with Tween-80

Measured: T/C

Cc1ncc2c(c1O)COC2C (stereo not given)
inactive: dose: 60.0 mg/kg/injection, schedule: Q01DX005 (ip), vehicle: saline 100 % of control | dose: 120.0 mg/kg/injection, schedule: Q01DX005 (ip), vehicle: saline 97 % of control | dose: 240.0 mg/kg/injection, schedule: Q01DX005 (ip), vehicle: saline 99 % of control

Cn1c(C(=O)N/N=C\C2OC3OC(C)(C)OC3C3OC(C)(C)OC23)cc2cc(OCc3ccccc3)ccc21 (stereo not given)
inactive: dose: 50.0 mg/kg/injection, schedule: Q01DX005 (ip), vehicle: Klucel (hydroxypropylcellulose) (HPC) 103 % of control | dose: 100.0 mg/kg/injection, schedule: Q01DX005 (ip), vehicle: Klucel (hydroxypropylcellulose) (HPC) 101 % of control | dose: 200.0 mg/kg/injection, schedule: Q01DX005 (ip), vehicle: Klucel (hydroxypropylcellulose) (HPC) 97 % of control

CCN(CC)C(=O)Nc1ccc(OCC(O)CNC(C)(C)C)c(C(C)=O)c1 (stereo not given)
inactive: dose: 50.0 mg/kg/injection, schedule: Q01DX009 (ip), vehicle: water 114 % of control | dose: 100.0 mg/kg/injection, schedule: Q01DX009 (ip), vehicle: water 102 % of control | dose: 200.0 mg/kg/injection, schedule: Q01DX009 (ip), vehicle: water 105 % of control

Nc1[nH]nc2nc(-c3ccc(Cl)cc3)cnc12
inactive: dose: 50.0 mg/kg/injection, schedule: Q04DX003 (ip), vehicle: saline with Tween-80 100 % of control | [1] 100 % of control | [2] 100 % of control

Oc1c(-c2ccccc2)cc(-[n+]2c(-c3ccccc3)cc(-c3ccccc3)cc2-c2ccccc2)cc1-c1ccccc1
inactive: dose: 0.38 mg/kg/injection, schedule: Q01DX009 (ip), vehicle: saline with Tween-80 88 % of control | dose: 0.75 mg/kg/injection, schedule: Q01DX009 (ip), vehicle: saline with Tween-80 106 % of control | dose: 1.5 mg/kg/injection, schedule: Q01DX009 (ip), vehicle: saline with Tween-80 121 % of control | dose: 3.0 mg/kg/injection, schedule: Q01DX009 (ip), vehicle: saline with Tween-80 122 % of control

CNC(=O)n1cc(Cl)ccc1=O
inactive: [3] 100 % of control and 108 % of control | [4] 100 % of control and 107 % of control | [5] 119 % of control

O=[N+]([O-])c1ccc(N=Nc2ccc(N(CCCl)CCCl)cc2)c([N+](=O)[O-])c1
inactive: [6] 106 % of control | [7] 108 % of control | [8] 103 % of control

CCCCCCCCCCC(N)P(=O)(O)O (stereo not given)
inactive: [9] 104 % of control | [10] 100 % of control | [11] 100 % of control

CNc1ccccc1CO
inactive: dose: 100.0 mg/kg/injection, schedule: Q04DX003 (ip), vehicle: other 95 % of control | dose: 200.0 mg/kg/injection, schedule: Q04DX003 (ip), vehicle: other 95 % of control | dose: 400.0 mg/kg/injection, schedule: Q04DX003 (ip), vehicle: other 90 % of control

O=[N+]([O-])/C=C/c1cc2c(cc1Br)OCO2
inactive: [1] 113 % of control | [2] 113 % of control

COc1ccc(C(=O)c2ccccc2)cc1OC
inactive: [10] 100 % of control | [11] 100 % of control | [12] 98 % of control | [13] 98 % of control

Nn1cnc2c(nnn2Cc2ccccc2)c1=O
inactive: dose: 100.0 mg/kg/injection, schedule: Q04DX002 (ip), vehicle: saline with Tween-80 104 % of control | dose: 200.0 mg/kg/injection, schedule: Q04DX002 (ip), vehicle: saline with Tween-80 100 % of control

CC(/C=C/c1ccccc1)=N\NC(=O)C(N)=O
inactive: [9] 97 % of control | [10] 97 % of control | [11] 96 % of control | [3] 100 % of control | [4] 91 % of control | [5] 98 % of control

CC1(C)OC(=O)N=C1c1cccc(Cl)c1
inactive: dose: 60.0 mg/kg/injection, schedule: Q01DX005 (ip), vehicle: Klucel (hydroxypropylcellulose) (HPC) 102 % of control | dose: 120.0 mg/kg/injection, schedule: Q01DX005 (ip), vehicle: Klucel (hydroxypropylcellulose) (HPC) 101 % of control | dose: 240.0 mg/kg/injection, schedule: Q01DX005 (ip), vehicle: Klucel (hydroxypropylcellulose) (HPC) 117 % of control

O=C(Oc1ccccc1[N+](=O)[O-])C1CCCN1C(=O)OCc1ccccc1 (stereo not given)
inactive: dose: 25.0 mg/kg/injection, schedule: Q01DX005 (ip), vehicle: saline with Tween-80 104 % of control | dose: 50.0 mg/kg/injection, schedule: Q01DX005 (ip), vehicle: saline with Tween-80 109 % of control | dose: 100.0 mg/kg/injection, schedule: Q01DX005 (ip), vehicle: saline with Tween-80 102 % of control | dose: 200.0 mg/kg/injection, schedule: Q01DX005 (ip), vehicle: saline with Tween-80 99 % of control

COC(=O)CC1(C(=O)OC)c2sc(-c3ccccc3OC)cc2N2CCCC21 (stereo not given)
inactive: dose: 0.63 mg/kg/injection, schedule: Q01DX009 (ip), vehicle: Klucel (hydroxypropylcellulose) (HPC) 106 % of control | dose: 1.25 mg/kg/injection, schedule: Q01DX009 (ip), vehicle: Klucel (hydroxypropylcellulose) (HPC) 102 % of control | dose: 2.5 mg/kg/injection, schedule: Q01DX009 (ip), vehicle: Klucel (hydroxypropylcellulose) (HPC) 102 % of control | dose: 5.0 mg/kg/injection, schedule: Q01DX009 (ip), vehicle: Klucel (hydroxypropylcellulose) (HPC) 100 % of control | dose: 10.0 mg/kg/injection, schedule: Q01DX009 (ip), vehicle: Klucel (hydroxypropylcellulose) (HPC) 105 % of control

O=[N+]([O-])c1ccc2[nH]ncc2c1
inactive: [11] 100 % of control | [12] 100 % of control | [13] 110 % of control

CCn1c(Cl)c(/C=N/Nc2ccccc2[N+](=O)[O-])c2cccc(/C=N\Nc3ccccc3[N+](=O)[O-])c21
inactive: [6] 91 % of control | [7] 90 % of control | [8] 87 % of control

NOCCCCCON
inactive: dose: 50.0 mg/kg/injection, schedule: Q01DX009 (ip), vehicle: Klucel (hydroxypropylcellulose) (HPC) 100 % of control | dose: 100.0 mg/kg/injection, schedule: Q01DX009 (ip), vehicle: Klucel (hydroxypropylcellulose) (HPC) 106 % of control

O=C(NC1CCCCC1)O/N=C/c1cccnc1
inactive: [11] 101 % of control | [12] 98 % of control | [13] 93 % of control

CCOC(=O)NC(NC(=O)OCC)c1ccncc1
inactive: dose: 100.0 mg/kg/injection, schedule: Q04DX003 (ip), vehicle: saline 94 % of control | dose: 200.0 mg/kg/injection, schedule: Q04DX003 (ip), vehicle: saline 98 % of control | dose: 400.0 mg/kg/injection, schedule: Q04DX003 (ip), vehicle: saline 99 % of control

C[Si](C)(C)CCCNCCNCCC[Si](C)(C)C
inactive: dose: 60.0 mg/kg/injection, schedule: Q01DX005 (ip), vehicle: saline with Tween-80 100 % of control | dose: 120.0 mg/kg/injection, schedule: Q01DX005 (ip), vehicle: saline with Tween-80 100 % of control

COc1cc2c(c3c1c(=O)c1ccccc1n3C)C=C([N+](=O)[O-])C(C)(C)O2
inactive: dose: 3.0 mg/kg/injection, schedule: Q01DX005 (ip), vehicle: saline + Tween-80 + alcohol 116 % of control | dose: 6.0 mg/kg/injection, schedule: Q01DX005 (ip), vehicle: saline + Tween-80 + alcohol 116 % of control | dose: 12.0 mg/kg/injection, schedule: Q01DX005 (ip), vehicle: saline + Tween-80 + alcohol 108 % of control

CC(Br)C(=O)c1ccc2cc(Br)c3ccccc3c2c1 (stereo not given)
inactive: [9] 100 % of control | [10] 106 % of control | [11] 116 % of control

CCOCCOC(=O)c1nc2c(N)nc(-c3ccccc3)nc2nc1N
inactive: dose: 15.0 mg/kg/injection, schedule: Q01DX009 (ip), vehicle: saline with Tween-80 98 % of control | dose: 30.0 mg/kg/injection, schedule: Q01DX009 (ip), vehicle: saline with Tween-80 98 % of control | dose: 60.0 mg/kg/injection, schedule: Q01DX009 (ip), vehicle: saline with Tween-80 91 % of control

COc1ccc(C(C)c2cc(C(C)(C)C)cc(C(C)(C)C)c2O)cc1 (stereo not given)
inactive: dose: 50.0 mg/kg/injection, schedule: Q01DX005 (ip), vehicle: distilled water + alcohol 100 % of control | dose: 100.0 mg/kg/injection, schedule: Q01DX005 (ip), vehicle: distilled water + alcohol 96 % of control | dose: 200.0 mg/kg/injection, schedule: Q01DX005 (ip), vehicle: distilled water + alcohol 94 % of control

C=CCN(CC=C)C(N)=Nc1ccccc1Cl
inactive: dose: 6.25 mg/kg/injection, schedule: Q01DX005 (ip), vehicle: saline 103 % of control | dose: 12.5 mg/kg/injection, schedule: Q01DX005 (ip), vehicle: saline 103 % of control | dose: 25.0 mg/kg/injection, schedule: Q01DX005 (ip), vehicle: saline 103 % of control
